Source: patent US20250236616A1, “IMMUNOMODULATING AZALIDES” (Zoetis Services LLC, priority 2021, published 2025)

Experiments:
[1] = test system: IL-1β; assay: Whole bovine blood assay, LPS-induced IL-1β (inhibition / overstimulation); format: cell-based; conditions: drug concentration giving overstimulation (OS) of LPS-induced IL-1β
Experimental: Whole Blood Assay-Fresh whole bovine blood samples were collected into heparinized vacutainer tubes. Assay plates were prepared with 25 μL of drug diluted in PBS at varying concentration in 96 round bottom wells, then 225 μL of blood was added and plates incubated at 37° C. for 4 hours. Cells were stimulated with LPS (or PBS for controls) by adding 25 μL to the plates at a final concentration of 1 μg/mL and incubated at 37° C. for 18 hours. To collect plasma, plates were centrifuged at 2,000×g for 10 minutes and 100 μL of supernatant was transferred to a 96 well polypropylene plate that was sealed and stored at −80° C. Samples were assayed for cytokines using the Meso Scale Discovery (MSD) platform (described below). This same MSD platform was used to assess cytokines in the plasma collected directly from drug treated animals.
Cytokine Detection—An MSD U-Plex cytokine assay was developed following the MSD U-Plex protocol guide and included biotinylated capture antibodies against: bovine Interleukin (IL)-1β (Biorad), bovine IL-6 (R&D Systems) and bovine tumor necrosis factor (TNF)-α (R&D Systems). The anti-IL-1β antibody was biotinylated using EZ-Link Sulfo-NHS-Biotin (Thermo Scientific) at a challenge ratio of 1:20 according to manufacturer instructions. Assay calibrators (Kingfisher) were diluted to a concentration of […] in control lithium heparin plasma, followed by 4-fold serial dilutions into plasma. The detection antibodies were sulfo-tagged following the MSD quick guide conjugation protocol using a challenge ratio of 1:20. Antibodies were used at the following concentrations: anti-IL-1β at 1 μg/mL, anti-IL-6 at 1 μg/mL and anti-TNF-α at 0.5 μg/mL. Cytokines were quantified according to manufacturer's instructions using a chemiluminescent readout. In brief, 0.5 mL of all biotinylated antibodies were diluted to 10 μg/mL with Diluent 100 and paired to their respective linkers by adding 750 μL of supplied Linker solution and incubated for 30 minutes followed by addition of Stop solution for another 30 minutes. The linked antibodies were then diluted 10-fold into Stop solution. Plates were coated by adding 50 μL of antibody solutions per well and incubated covered and shaking for 1 hour at room temperature. Plates were washed three times with PBS/Tween20 prior to samples or standards being added at 30 μL per well and incubated as above. Plates were washed three times before detection antibodies were added along with 2% goat and rabbit serum to block and incubated same as above. Plates were washed a further three times before addition of 150 μL 2X Read buffer and read immediately on the SI6000 instrument (MSD). For soluble protein levels, a BCA protein kit (Thermofisher) was used. The cytokine concentrations (pg/mL) were normalized to the total protein levels for each sample. [Bassel et. al., BMC Veterinary Research (2020) 16:168]
Therefore, a fresh whole bovine blood assay was developed with LPS as a stimulant (TLR-4 agonist) and with IL-1β and TNF-α as the read-out. Compounds of the invention were evaluated against a positive control for their ability to inhibit LPS-induced IL-1β and TNF-α as an overall evaluation of relative potency and modulation of target pathways.
For M9, the top dose of 500 μM was not high enough to determine an overstimulation of IL-1 B which was recorded as not applicable (n/a). The enhanced response indicates increased concentration of IL-1β cytokine at the drug concentration indicated. This is generally observed when compounds are out of range (high concentration) and stimulate a cellular toxicity signal. Further data supporting this hypothesis includes murine studies using a P. multocida infection in mice.
TNFα is a cell signaling protein, cytokine, that plays a key role in both acute and chronic inflammation. […]

[2] = test system: TNF-α; assay: Whole bovine blood assay, LPS-induced TNF-α; format: cell-based; conditions: fresh whole bovine blood, LPS stimulant
Procedure, shortened: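 Fresh heparinized bovine whole blood was preincubated with compound 4 h at 37 °C, then stimulated with LPS (final 1 μg/mL) for 18 h at 37 °C. Plasma TNF-α was quantified by MSD U-Plex chemiluminescent immunoassay, normalized to total protein (BCA), and IC50 taken for LPS-induced TNF-α inhibition.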

Row | SMILES | IC50 ([2]; top drug concentration 250 μM) [µM] | IC50 ([2]; dose of 500 μM (footnote ^)) [µM] | minimal effective concentration ([1]; top concentration 250 μM) [µM] | minimal effective concentration ([1]; dose of 500 μM (footnote ^)) [µM]
1 | CC[C@H]1OC(=O)[C@H](C)[C@@H](O)[C@H](C)[C@@H](O[C@@H]2O[C@H](C)C[C@H](N(C)S(=O)(=O)c3ccccc3)[C@H]2Oc2ccc(F)c(C(F)(F)F)c2)[C@](C)(O)C[C@@H](C)CN(C)[C@H](C)[C@@H](O)[C@]1(C)O [Example A-2] | 28 |  | 40 | 
2 | CCCNC[C@]1(O)[C@H](C)O[C@@H](O[C@H]2[C@H](C)[C@@H](O[C@@H]3O[C@H](C)C[C@H](N(C)S(=O)(=O)c4c(C)noc4C)[C@H]3O)[C@](C)(O)C[C@@H](C)CN[C@H](C)[C@@H](O)[C@](C)(O)[C@@H](CC)OC(=O)[C@@H]2C)C[C@@]1(C)OC [Example B-4] |  |  | 40 | 
3 | CCCNC[C@]1(O)[C@H](C)O[C@@H](O[C@H]2[C@H](C)[C@@H](O[C@@H]3O[C@H](C)C[C@H](N(C)S(=O)(=O)c4ccc(S(C)(=O)=O)cc4)[C@H]3O)[C@](C)(O)C[C@@H](C)CN[C@H](C)[C@@H](O)[C@](C)(O)[C@@H](CC)OC(=O)[C@@H]2C)C[C@@]1(C)OC [Example B-11] |  |  | >250 | 
4 | CCCNC[C@]1(O)[C@H](C)O[C@@H](O[C@H]2[C@H](C)[C@@H](O[C@@H]3O[C@H](C)C[C@H](N(C)S(=O)(=O)c4ccc(S(N)(=O)=O)cc4)[C@H]3O)[C@](C)(O)C[C@@H](C)CN[C@H](C)[C@@H](O)[C@](C)(O)[C@@H](CC)OC(=O)[C@@H]2C)C[C@@]1(C)OC [Example B-15] |  |  | >250 | 
5 | CCCNC[C@]1(O)[C@H](C)O[C@@H](O[C@H]2[C@H](C)[C@@H](O[C@@H]3O[C@H](C)C[C@H](N(C)S(=O)(=O)c4ccc(C#N)nc4)[C@H]3O)[C@](C)(O)C[C@@H](C)CN[C@H](C)[C@@H](O)[C@](C)(O)[C@@H](CC)OC(=O)[C@@H]2C)C[C@@]1(C)OC [Example B-17] |  |  | 100 | 
6 | CCCNC[C@]1(O)[C@H](C)O[C@@H](O[C@H]2[C@H](C)[C@@H](O[C@@H]3O[C@H](C)C[C@H](N(C)S(=O)(=O)N(C)c4ccc(C#N)cc4)[C@H]3O)[C@](C)(O)C[C@@H](C)CN[C@H](C)[C@@H](O)[C@](C)(O)[C@@H](CC)OC(=O)[C@@H]2C)C[C@@]1(C)OC [Example B-62] |  |  | 3 | 
7 | CCCNC[C@]1(O)[C@H](C)O[C@@H](O[C@H]2[C@H](C)[C@@H](O[C@@H]3O[C@H](C)C[C@H](N(C)S(=O)(=O)c4nccn4C)[C@H]3Oc3ccc(OC)cc3)[C@](C)(O)C[C@@H](C)CN[C@H](C)[C@@H](O)[C@](C)(O)[C@@H](CC)OC(=O)[C@@H]2C)C[C@@]1(C)OC [Example B-119] |  |  | 6 | 
8 | CCCNC[C@]1(O)[C@H](C)O[C@@H](O[C@H]2[C@H](C)[C@@H](O[C@@H]3O[C@H](C)C[C@H](N(C)S(=O)(=O)c4ccccc4)[C@H]3Oc3ccc(Cl)cn3)[C@](C)(O)C[C@@H](C)CN[C@H](C)[C@@H](O)[C@](C)(O)[C@@H](CC)OC(=O)[C@@H]2C)C[C@@]1(C)OC [Example B-135] |  |  | 6 | 
9 | CCCNC[C@]1(O)[C@H](C)O[C@@H](O[C@H]2[C@H](C)[C@@H](O[C@@H]3O[C@H](C)C[C@H](N(C)S(N)(=O)=O)[C@H]3O)[C@](C)(O)C[C@@H](C)CN[C@H](C)[C@@H](O)[C@](C)(O)[C@@H](CC)OC(=O)[C@@H]2C)C[C@@]1(C)OC [Example B-140] |  |  | >250 | 

Now from value to compound, other results behind:

Row | IC50 ([2]; top drug concentration 250 μM) [µM] | IC50 ([2]; dose of 500 μM (footnote ^)) [µM] | SMILES | minimal effective concentration ([1]; top concentration 250 μM) [µM] | minimal effective concentration ([1]; dose of 500 μM (footnote ^)) [µM]
10 | 22 |  | CC[C@H]1OC(=O)[C@H](C)[C@@H](O)[C@H](C)[C@@H](O[C@@H]2O[C@H](C)C[C@H](N(C)S(=O)(=O)c3ccccc3)[C@H]2Oc2ccc(OC)cc2)[C@](C)(O)C[C@@H](C)CN(C)[C@H](C)[C@@H](O)[C@]1(C)O [Example A-1] | 16 | 
11 | 10 |  | CC[C@H]1OC(=O)[C@H](C)[C@@H](O)[C@H](C)[C@@H](O[C@H]2O[C@@H](C)C[C@@H](N(C)S(=O)(=O)Nc3ccccc3)[C@@H]2Oc2ccccc2)[C@](C)(O)C[C@@H](C)CN[C@H](C)[C@@H](O)[C@]1(C)O [Example A-4] | 4 | 
12 | 10 |  | CC[C@H]1OC(=O)[C@H](C)[C@@H](O)[C@H](C)[C@@H](O[C@@H]2O[C@H](C)C[C@H](N(C)S(=O)(=O)Nc3ccccc3)[C@H]2Oc2ccc(OC)cc2)[C@](C)(O)C[C@@H](C)CN[C@H](C)[C@@H](O)[C@]1(C)O [Example A-36] | 4 | 
13 | > 250 |  | CCCNC[C@]1(O)[C@H](C)O[C@@H](O[C@H]2[C@H](C)[C@@H](O[C@@H]3O[C@H](C)C[C@H](N(C)S(=O)(=O)c4cn(C)c(C)n4)[C@H]3O)[C@](C)(O)C[C@@H](C)CN[C@H](C)[C@@H](O)[C@](C)(O)[C@@H](CC)OC(=O)[C@@H]2C)C[C@@]1(C)OC [Example B-5] | >250 | 
14 | 24 |  | CCCNC[C@]1(O)[C@H](C)O[C@@H](O[C@H]2[C@H](C)[C@@H](O[C@@H]3O[C@H](C)C[C@H](N(C)S(=O)(=O)c4ccc(F)nc4)[C@H]3O)[C@](C)(O)C[C@@H](C)CN[C@H](C)[C@@H](O)[C@](C)(O)[C@@H](CC)OC(=O)[C@@H]2C)C[C@@]1(C)OC [Example B-6] | 16 | 
15 | 25 |  | CCCNC[C@]1(O)[C@H](C)O[C@@H](O[C@H]2[C@H](C)[C@@H](O[C@@H]3O[C@H](C)C[C@H](N(C)S(=O)(=O)c4ccccc4)[C@H]3O)[C@](C)(O)C[C@@H](C)CN[C@H](C)[C@@H](O)[C@](C)(O)[C@@H](CC)OC(=O)[C@@H]2C)C[C@@]1(C)OC [Example B-7] | 40 | 
16 | 55 |  | CCCNC[C@]1(O)[C@H](C)O[C@@H](O[C@H]2[C@H](C)[C@@H](O[C@@H]3O[C@H](C)C[C@H](N(C)S(=O)(=O)c4cnc5ccsc5c4)[C@H]3O)[C@](C)(O)C[C@@H](C)CN[C@H](C)[C@@H](O)[C@](C)(O)[C@@H](CC)OC(=O)[C@@H]2C)C[C@@]1(C)OC [Example B-9] | 40 | 
17 | 33 |  | CCCNC[C@]1(O)[C@H](C)O[C@@H](O[C@H]2[C@H](C)[C@@H](O[C@@H]3O[C@H](C)C[C@H](N(C)S(=O)(=O)CC4CC4)[C@H]3O)[C@](C)(O)C[C@@H](C)CN[C@H](C)[C@@H](O)[C@](C)(O)[C@@H](CC)OC(=O)[C@@H]2C)C[C@@]1(C)OC [Example B-10] | 15 | 
18 | > 250 |  | CCCNC[C@]1(O)[C@H](C)O[C@@H](O[C@H]2[C@H](C)[C@@H](O[C@@H]3O[C@H](C)C[C@H](N(C)S(=O)(=O)c4ccc(C#N)cc4)[C@H]3O)[C@](C)(O)C[C@@H](C)CN[C@H](C)[C@@H](O)[C@](C)(O)[C@@H](CC)OC(=O)[C@@H]2C)C[C@@]1(C)OC [Example B-13] | 100 | 
19 | > 250 |  | CCCNC[C@]1(O)[C@H](C)O[C@@H](O[C@H]2[C@H](C)[C@@H](O[C@@H]3O[C@H](C)C[C@H](N(C)S(=O)(=O)c4cn(C)cn4)[C@H]3O)[C@](C)(O)C[C@@H](C)CN[C@H](C)[C@@H](O)[C@](C)(O)[C@@H](CC)OC(=O)[C@@H]2C)C[C@@]1(C)OC [Example B-16] | >250 | 
20 |  | 15 | CCCNC[C@]1(O)[C@H](C)O[C@@H](O[C@H]2[C@H](C)[C@@H](O[C@@H]3O[C@H](C)C[C@H](N(C)S(=O)(=O)c4ccc(OC)cc4)[C@H]3O)[C@](C)(O)C[C@@H](C)CN[C@H](C)[C@@H](O)[C@](C)(O)[C@@H](CC)OC(=O)[C@@H]2C)C[C@@]1(C)OC [Example B-18] |  | 32
